pIC50: −log10 of the molar value.
Tests used:
[1] = test system: GP2D cells (KRAS G12D), phospho-ERK; test: pERK In Cell Western (ICW) assay, GP2D cells; type: cell-based; settings: Table 4, 3 hours
Experimental: pERK ICW is a high throughput screening assay to evaluate the cellular potency of mutant KRAS small molecule inhibitors. KRAS mutant cell lines AGS and GP2D (KRAS^G12D) were purchased from ATCC and maintained respectively in RPMI and DMEM medium supplemented with 10% fetal bovine serum and Penicillin/Streptomycin.
Cells grown in exponential phase were trypsinized, resuspended in fresh media, and viable cells were counted using a cell counter with Trypan Blue (BioRad TC20). Cells were seeded into 384-well plate (Greiner 781091) at density of 5,000 cells/well for AGS and 10,000 cells/well for GP2D and allowed to grow overnight in a 37° C. CO2 incubator. The next day, compounds were dispensed into wells with a ½ log, 10-point serial dilution and top concentration of […] using Tecan D300e dispenser and incubated for 3 hours in a 37° C. CO2 incubator. Cells were then fixed with paraformaldehyde (Electron Microscopy Sciences, 15710, 4% final concentration) for 30 min, permeabilized with wash buffer (1×PBS+0.1% Triton X-100) for 30 min and blocked with Odyssey blocking buffer (Li—COR 927-70001) for 1 hour, all at room temperature (RT). Phospho-ERK antibody (CST 4370L) was diluted 1:500 in Odyssey blocking+0.2% Tween 20 and incubated with cells overnight at 4° C. The next day, plates were washed 5× with wash buffer, incubated with IRDye 800 CW, Goat anti-Rabbit secondary antibody (Li—COR 926-32211, 1:500) and DRAQ5 (CST 4084L, 1:5,000) diluted in Odyssey blocking+0.2% Tween 20 for 1 hour, washed 5×, and imaged on an Odyssey CLx imaging system.
For data analysis, signal intensities from 800 (phosphor-ERK) and 700 (DRAQ5) channels were extracted, and phospho-ERK signals were normalized to DRAQ5 signals for each well and percent of DMSO control values were computed. Data were then imported into Graphpad Prism to compute half-maximal inhibitory concentrations (IC50) using a 4-parameter variable slope model. Z-factor for each plate was computed from signals derived from wells treated with either DMSO or […] of Trametinib. AGS pERK ICW (Method B) IC50 (uM) values of selected compounds are depicted in Table 2 with compounds having a value 0.001 uM to 0.01 uM as ++++; >0.01 uM to 0.1 uM as +++; >0.1 uM to 1 uM as ++; 1 uM to 10 uM as + and >10 uM as NA.

KRAS G12D/RAF1 = target: T1, KRAS G12D/RAF1 (Homo sapiens, UniProt P01116, G12D); test: Protein-protein interaction (PPI) HTRF assay KRAS G12D/RAF1; type: binding
T1 construct: His6-MBP (N, cleaved yes); made in house; host or cells: E. coli
T1 sequence (P01116 with tags, fused parts or gaps isoform P01116-2 G12D): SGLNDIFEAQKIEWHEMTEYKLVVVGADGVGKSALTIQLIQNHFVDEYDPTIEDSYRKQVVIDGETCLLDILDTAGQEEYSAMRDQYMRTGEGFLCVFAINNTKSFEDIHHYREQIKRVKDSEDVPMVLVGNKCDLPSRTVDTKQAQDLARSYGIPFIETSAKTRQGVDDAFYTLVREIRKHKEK
In short: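 HTRF pairing of His-tagged RAF1 (52-131) plus Tb-cryptate donor with GppNHp-exchanged biotin-RAS (KRAS 1-169 wt/G12D/G12V, NRAS wt) plus streptavidin-d2 acceptor; compound sits 30 min with RAS first, then 1 h RT with RAF1. IC50 derived from 665/615 ratio, untagged RAF1 defining full inhibition.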

| Compound | pIC50 [1] | pIC50 (KRAS G12D/RAF1; Table 4) | pIC50 (KRAS G12D/RAF1; Table 2) |
| --- | --- | --- | --- |
| CN(C)CC1(COc2nc(N3C[C@H]4CC[C@@H](C3)N4)c(C#N)c(N3CC4(CCc5sc(N)c(C#N)c54)C3)n2)CC1(F)F (mixture of isomers) [Compound 74, 2-amino-1′-[5-cyano-6-(3,8-diazabicyclo[3.2.1]octan-3-yl)-2-[[1-[(dimethylamino)methyl]-2,2-difluoro-cyclopropyl]methoxy]pyrimidin-4-yl]spiro[5,6-dihydrocyclopenta[b]thiophene-4,3′-azetidine]-3-carbonitrile] | 5.00 to 6.00 | 4.00 to 5.00 |  |
| CN(C)C(=O)c1nn2c(c1Cl)CN(c1nc(OC[C@@]34CCCN3C[C@H](F)C4)nc(N3CC4(CCc5sc(N)c(C#N)c54)C3)c1C#N)CCC2 [Compound 2, 5-[6-(2-amino-3-cyano-spiro[5,6-dihydrocyclopenta[b]thiophene-4,3′-azetidine]-1′-yl)-5-cyano-2-[[(2R,8S)-2-fluoro-1,2,3,5,6,7-hexahydropyrrolizin-8-yl]methoxy]pyrimidin-4-yl]-3-chloro-N,N-dimethyl-4,6,7,8-tetrahydropyrazolo[1,5-a][1,4]diazepine-2-carboxamide] | 8.00 to 9.00 | 6.00 to 7.00 | 6.00 to 7.00 |
| CN(C)C(=O)c1nn2c(c1Cl)CN(c1nc(OC[C@@]34CCCN3C[C@H](F)C4)nc(N3CC4(CCCc5sc(N)c(C#N)c54)C3)c1C#N)CCC2 [Compound 3, 5-[6-(2-amino-3-cyano-spiro[6,7-dihydro-5H-benzothiophene-4,3′-azetidine]-1′-yl)-5-cyano-2-[[(2R,8S)-2-fluoro-1,2,3,5,6,7-hexahydropyrrolizin-8-yl]methoxy]pyrimidin-4-yl]-3-chloro-N,N-dimethyl-4,6,7,8-tetrahydropyrazolo[1,5-a][1,4]diazepine-2-carboxamide] | 8.00 to 9.00 | 5.00 to 6.00 | 4.00 to 5.00 |
| N#Cc1c(N2C[C@H]3CC[C@@H](C2)N3)nc(OCC2(CN3CCOCC3)CC2)nc1N1CC2(CCc3sc(N)c(C#N)c32)C1 [Compound 4, 2-amino-1′-[5-cyano-2-[[1-(morpholinomethyl)cyclopropyl]methoxy]-6-[(1R,5S)-3,8-diazabicyclo[3.2.1]octan-3-yl]pyrimidin-4-yl]spiro[5,6-dihydrocyclopenta[b]thiophene-4,3′-azetidine]-3-carbonitrile] | 8.00 to 9.00 | > 7.00 |  |
| CN(C)C(=O)c1nn2c(c1Cl)CN(c1nc(OCC3(CN4CCOCC4)CC3)nc(N3CC4(CCc5sc(N)c(C#N)c54)C3)c1C#N)CCC2 [Compound 5, 5-[6-(2-amino-3-cyano-spiro[5,6-dihydrocyclopenta[b]thiophene-4,3′-azetidine]-1′-yl)-5-cyano-2-[[1-(morpholinomethyl)cyclopropyl]methoxy]pyrimidin-4-yl]-3-chloro-N,N-dimethyl-4,6,7,8-tetrahydropyrazolo[1,5-a][1,4]diazepine-2-carboxamide] | 8.00 to 9.00 | 5.00 to 6.00 |  |
| N#Cc1c(N)sc2c1C1(CC2)CN(c2nc(OC[C@@]34CCCN3C[C@H](F)C4)nc(N3CCC[C@]4(C3)NC(=O)NC4=O)c2F)C1 [Compound 7, 2-amino-1′-[6-[(5R)-2,4-dioxo-1,3,9-triazaspiro[4.5]decan-9-yl]-5-fluoro-2-[[(2R,8S)-2-fluoro-1,2,3,5,6,7-hexahydropyrrolizin-8-yl]methoxy]pyrimidin-4-yl]spiro[5,6-dihydrocyclopenta[b]thiophene-4,3′-azetidine]-3-carbonitrile] | 6.00 to 7.00 | 6.00 to 7.00 |  |
| CN(C)C(=O)c1cc2n(n1)CCCN(c1nc(OC[C@@]34CCCN3C[C@H](F)C4)nc(N3CC4(CCc5sc(N)c(C#N)c54)C3)c1C#N)C2 [Compound 8, 5-[6-(2-amino-3-cyano-spiro[5,6-dihydrocyclopenta[b]thiophene-4,3′-azetidine]-1′-yl)-5-cyano-2-[[(2R,8S)-2-fluoro-1,2,3,5,6,7-hexahydropyrrolizin-8-yl]methoxy]pyrimidin-4-yl]-N,N-dimethyl-4,6,7,8-tetrahydropyrazolo[1,5-a][1,4]diazepine-2-carboxamide] | 8.00 to 9.00 | 5.00 to 6.00 |  |
| CN(C)C(=O)c1nn2c(c1Cl)CN(c1nc(OC[C@@]34CCCN3C[C@H](F)C4)nc(N3CC4(CCc5sc(N)c(C#N)c54)C3)c1F)CCC2 [Compound 9, 5-[6-(2-amino-3-cyano-spiro[5,6-dihydrocyclopenta[b]thiophene-4,3′-azetidine]-1′-yl)-5-fluoro-2-[[(2R,8S)-2-fluoro-1,2,3,5,6,7-hexahydropyrrolizin-8-yl]methoxy]pyrimidin-4-yl]-3-chloro-N,N-dimethyl-4,6,7,8-tetrahydropyrazolo[1,5-a][1,4]diazepine-2-carboxamide] | 7.00 to 8.00 | 5.00 to 6.00 |  |
| CN(C)C(=O)c1nn2c(c1Cl)CN(c1nc(OC[C@@]34CCCN3C[C@H](F)C4)nc(N3CC4(CCCCc5sc(N)c(C#N)c54)C3)c1C#N)CCC2 [Compound 10, 5-[6-(2-amino-3-cyano-spiro[5,6,7,8-tetrahydrocyclohepta[b]thiophene-4,3′-azetidine]-1′-yl)-5-cyano-2-[[(2R,8S)-2-fluoro-1,2,3,5,6,7-hexahydropyrrolizin-8-yl]methoxy]pyrimidin-4-yl]-3-chloro-N,N-dimethyl-4,6,7,8-tetrahydropyrazolo[1,5-a][1,4]diazepine-2-carboxamide] | 7.00 to 8.00 | 5.00 to 6.00 |  |
| N#Cc1c(N2CC3(CCc4sc(N)c(C#N)c43)C2)nc(OC[C@@]23CCCN2C[C@H](F)C3)nc1N1CCC[C@]2(C1)NC(=O)NC2=O [Compound 11, 2-amino-1′-[5-cyano-6-[(5R)-2,4-dioxo-1,3,9-triazaspiro[4.5]decan-9-yl]-2-[[(2R,8S)-2-fluoro-1,2,3,5,6,7-hexahydropyrrolizin-8-yl]methoxy]pyrimidin-4-yl]spiro[5,6-dihydrocyclopenta[b]thiophene-4,3′-azetidine]-3-carbonitrile] | 5.00 to 6.00 | 6.00 to 7.00 |  |
| N#Cc1c(N2CCCC3(C2)NC(=O)NC3=O)nc(OC[C@@]23CCCN2C[C@H](F)C3)nc1N1CC2(CCc3sc(N)c(C#N)c32)C1 (stereo partly drawn) [Compound 12, 2-amino-1′-[5-cyano-6-(2,4-dioxo-1,3,9-triazaspiro[4.5]decan-9-yl)-2-[[(2R,8S)-2-fluoro-1,2,3,5,6,7-hexahydropyrrolizin-8-yl]methoxy]pyrimidin-4-yl]spiro[5,6-dihydrocyclopenta[b]thiophene-4,3′-azetidine]-3-carbonitrile] | 5.00 to 6.00 | 6.00 to 7.00 |  |
| CC(=O)c1nn2c(c1Cl)CN(c1nc(OC[C@@]34CCCN3C[C@H](F)C4)nc(N3CC4(CCc5sc(N)c(C#N)c54)C3)c1C#N)CCC2 [Compound 13, 1′-[6-(2-acetyl-3-chloro-4,6,7,8-tetrahydropyrazolo[1,5-a][1,4]diazepin-5-yl)-5-cyano-2-[[(2R,8S)-2-fluoro-1,2,3,5,6,7-hexahydropyrrolizin-8-yl]methoxy]pyrimidin-4-yl]-2-amino-spiro[5,6-dihydrocyclopenta[b]thiophene-4,3′-azetidine]-3-carbonitrile] | 8.00 to 9.00 | 5.00 to 6.00 |  |
| CC1CC2(CN(c3nc(OC[C@@]45CCCN4C[C@H](F)C5)nc(N4CCCn5nc(C(=O)N(C)C)c(Cl)c5C4)c3C#N)C2)c2c1sc(N)c2C#N (stereo partly drawn) [Compound 14, 5-[6-(2-amino-3-cyano-6-methyl-spiro[5,6-dihydrocyclopenta[b]thiophene-4,3′-azetidine]-1′-yl)-5-cyano-2-[[(2R,8S)-2-fluoro-1,2,3,5,6,7-hexahydropyrrolizin-8-yl]methoxy]pyrimidin-4-yl]-3-chloro-N,N-dimethyl-4,6,7,8-tetrahydropyrazolo[1,5-a][1,4]diazepine-2-carboxamide] | 8.00 to 9.00 | 6.00 to 7.00 |  |
| N#Cc1c(N)sc2c1C1(CC2)CN(c2nc(OC[C@@]34CCCN3C[C@H](F)C4)nc(N3C[C@H]4CC[C@@H](C3)N4)c2F)C1 [Compound 15, 2-amino-1′-[6-(3,8-diazabicyclo[3.2.1]octan-3-yl)-5-fluoro-2-[[(2R,8S)-2-fluoro-1,2,3,5,6,7-hexahydropyrrolizin-8-yl]methoxy]pyrimidin-4-yl]spiro[5,6-dihydrocyclopenta[b]thiophene-4,3′-azetidine]-3-carbonitrile] | 7.00 to 8.00 | 6.00 to 7.00 |  |

— US12145947B2, “Pyrimidine based modulators and uses thereof” (Quanta Therapeutics, Inc., priority 2022, dated 2024)
